Measured values taken from PubChem BioAssay AID330 (DTP/NCI, 2004).
Where “and” joins values, the source holds several entries; their conditions need not be identical. Equal entries are not always repeated. Toxic doses and inconclusive results are not listed.

System: P388 leukemia ip, CD2F1 mice, survival T/C
Assay: NCI In Vivo Anticancer Drug Screen. Data for tumor model P388 Leukemia (intraperitoneal) in CD2F1 (CDF1) mice
Details: endpoint: median survival time, higher = longer survival
Procedure, shortened: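 Mice carrying the transplanted tumor received test compound or vehicle. Survival was recorded in each group, and the value is the treated-group measurement divided by that of the vehicle-treated control group.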

[1] = dose: 50.0 mg/kg/injection, schedule: Q01DX005 (ip), vehicle: saline with Tween-80
[2] = dose: 100.0 mg/kg/injection, schedule: Q01DX005 (ip), vehicle: saline with Tween-80
[3] = dose: 200.0 mg/kg/injection, schedule: Q01DX005 (ip), vehicle: saline with Tween-80
[4] = dose: 50.0 mg/kg/injection, schedule: Q01DX009 (ip), vehicle: saline with Tween-80
[5] = dose: 100.0 mg/kg/injection, schedule: Q01DX009 (ip), vehicle: saline with Tween-80
[6] = dose: 100.0 mg/kg/injection, schedule: Q01DX001 (ip), vehicle: saline with Tween-80
[7] = dose: 200.0 mg/kg/injection, schedule: Q01DX001 (ip), vehicle: saline with Tween-80
[8] = dose: 400.0 mg/kg/injection, schedule: Q01DX001 (ip), vehicle: saline with Tween-80
[9] = dose: 100.0 mg/kg/injection, schedule: Q04DX003 (ip), vehicle: saline with Tween-80
[10] = dose: 200.0 mg/kg/injection, schedule: Q04DX003 (ip), vehicle: saline with Tween-80
[11] = dose: 400.0 mg/kg/injection, schedule: Q04DX003 (ip), vehicle: saline with Tween-80
[12] = dose: 60.0 mg/kg/injection, schedule: Q01DX005 (ip), vehicle: saline with Tween-80
[13] = dose: 120.0 mg/kg/injection, schedule: Q01DX005 (ip), vehicle: saline with Tween-80
[14] = dose: 240.0 mg/kg/injection, schedule: Q01DX005 (ip), vehicle: saline with Tween-80
[15] = dose: 60.0 mg/kg/injection, schedule: Q01DX005 (ip), vehicle: Klucel (hydroxypropylcellulose) (HPC)
[16] = dose: 120.0 mg/kg/injection, schedule: Q01DX005 (ip), vehicle: Klucel (hydroxypropylcellulose) (HPC)
[17] = dose: 50.0 mg/kg/injection, schedule: Q01DX005 (ip), vehicle: Klucel (hydroxypropylcellulose) (HPC)
[18] = dose: 100.0 mg/kg/injection, schedule: Q01DX005 (ip), vehicle: Klucel (hydroxypropylcellulose) (HPC)
[19] = dose: 200.0 mg/kg/injection, schedule: Q01DX005 (ip), vehicle: Klucel (hydroxypropylcellulose) (HPC)
[20] = dose: 30.0 mg/kg/injection, schedule: Q01DX005 (ip), vehicle: Klucel (hydroxypropylcellulose) (HPC)
[21] = dose: 240.0 mg/kg/injection, schedule: Q01DX005 (ip), vehicle: Klucel (hydroxypropylcellulose) (HPC)

CCC(=O)N1C(=O)C(C)C23c4ccccc4C(=O)N2CCCN13 (stereo not given)
T/C [1]: 97 % of control | T/C [2]: 96 % of control | T/C [3]: 96 % of control

CCCCCCCCC(=O)CCCC
T/C [4]: 109 % of control | T/C [5]: 122 % of control | T/C (dose: 100.0 mg/kg/injection, schedule: Q04DX003 (ip), vehicle: saline): 100 % of control | T/C (dose: 200.0 mg/kg/injection, schedule: Q04DX003 (ip), vehicle: saline): 113 % of control

CC(C(=O)O)C(C)(C)c1ccccc1 (stereo not given)
T/C [6]: 100 % of control | T/C [7]: 99 % of control | T/C [8]: 105 % of control

c1ccc(-c2[nH]c3cc4c(cc3c2-c2ccccc2)Oc2ccccc2O4)cc1
T/C (dose: 17.5 mg/kg/injection, schedule: Q01DX009 (ip), vehicle: Klucel (hydroxypropylcellulose) (HPC)): 116 % of control | T/C (dose: 35.0 mg/kg/injection, schedule: Q01DX009 (ip), vehicle: Klucel (hydroxypropylcellulose) (HPC)): 113 % of control | T/C (dose: 70.0 mg/kg/injection, schedule: Q01DX009 (ip), vehicle: Klucel (hydroxypropylcellulose) (HPC)): 104 % of control

CC(=O)c1ccc(-c2ccccc2)cc1
T/C [9]: 91 % of control | T/C [10]: 91 % of control | T/C [11]: 95 % of control

CC(C)C(=O)CC(=O)CCC(=O)Nc1cccc(Cl)c1
T/C [12]: 105 % of control | T/C [13]: 102 % of control | T/C [14]: 107 % of control

N#Cc1nnc2cc(-c3ccccc3)nn2c1-c1ccco1
T/C [15]: 98 % of control | T/C [16]: 90 % of control

C(=N\Nc1ccccn1)/c1ccccn1.C(=N\Nc1ccccn1)/c1ccccn1.[Cl-].[Fe+3]
T/C [6]: 100 % of control | T/C [7]: 89 % of control

O=C(NCC(O)CNC(=O)Nc1ccc(C2=NCC(O)CN2)cc1)Nc1ccc(C2=NCC(O)CN2)cc1 (stereo not given)
T/C (dose: 12.5 mg/kg/injection, schedule: Q01DX005 (ip), vehicle: saline with Tween-80): 95 % of control | T/C (dose: 25.0 mg/kg/injection, schedule: Q01DX005 (ip), vehicle: saline with Tween-80): 100 % of control | T/C [1]: 109 % of control and 97 % of control

COc1cccc2c1C(=O)c1c(O)c3c(c(O)c1C2=O)CC(O)(/C(C)=N/NC(=O)CCC(=O)N/N=C(\C)C1(O)Cc2c(O)c4c(c(O)c2C(OC2CC(N(C)C)C(O)C(C)O2)C1)C(=O)c1c(OC)cccc1C4=O)CC3OC1CC(N(C)C)C(O)C(C)O1 (stereo not given)
T/C (dose: 1.0 mg/kg/injection, schedule: Q01DX009 (ip), vehicle: water): 157 % of control | T/C (dose: 2.0 mg/kg/injection, schedule: Q01DX009 (ip), vehicle: water): 183 % of control | T/C (dose: 3.13 mg/kg/injection, schedule: Q04DX003 (ip), vehicle: water): 103 % of control | T/C (dose: 4.0 mg/kg/injection, schedule: Q01DX009 (ip), vehicle: water): 178 % of control and 203 % of control | T/C (dose: 6.25 mg/kg/injection, schedule: Q04DX003 (ip), vehicle: water): 110 % of control | T/C (dose: 8.0 mg/kg/injection, schedule: Q01DX009 (ip), vehicle: water): 160 % of control and 240 % of control | T/C (dose: 12.5 mg/kg/injection, schedule: Q04DX003 (ip), vehicle: water): 117 % of control | T/C (dose: 16.0 mg/kg/injection, schedule: Q01DX009 (ip), vehicle: water): 152 % of control | T/C (dose: 25.0 mg/kg/injection, schedule: Q04DX003 (ip), vehicle: water): 174 % of control | T/C (dose: 50.0 mg/kg/injection, schedule: Q04DX003 (ip), vehicle: water): 119 % of control

O=C1NN(C(=O)c2ccccc2)C(c2ccccc2[N+](=O)[O-])c2c1c1ccccc1n2C(=O)c1ccccc1 (stereo not given)
T/C [17]: 97 % of control | T/C [18]: 95 % of control | T/C [19]: 88 % of control

NC(CSSCC(N)C(=O)c1ccccc1)C(=O)c1ccccc1 (stereo not given)
T/C [17]: 98 % of control | T/C [18]: 98 % of control | T/C [19]: 105 % of control

CC1(C)OC2C(COC(=O)c3ccc([N+](=O)[O-])cc3)OC(NC(=O)N(CCCl)N=O)C2O1 (stereo not given)
T/C (dose: 0.09 mg/kg/injection, schedule: Q01DX009 (ip), vehicle: saline with Tween-80): 119 % of control | T/C (dose: 0.19 mg/kg/injection, schedule: Q01DX009 (ip), vehicle: saline with Tween-80): 119 % of control | T/C (dose: 0.39 mg/kg/injection, schedule: Q01DX009 (ip), vehicle: saline with Tween-80): 119 % of control | T/C (dose: 1.56 mg/kg/injection, schedule: Q01DX009 (ip), vehicle: saline with Tween-80): 153 % of control | T/C (dose: 3.12 mg/kg/injection, schedule: Q01DX009 (ip), vehicle: saline with Tween-80): 174 % of control | T/C (dose: 12.5 mg/kg/injection, schedule: Q01DX009 (ip), vehicle: saline with Tween-80): 202 % of control | T/C (dose: 25.0 mg/kg/injection, schedule: Q01DX009 (ip), vehicle: saline with Tween-80): 272 % of control | T/C [4]: 282 % of control | T/C [5]: 154 % of control | T/C (dose: 200.0 mg/kg/injection, schedule: Q01DX009 (ip), vehicle: saline with Tween-80): 109 % of control

Nc1nc2c(C(=O)c3ccco3)nnn2c2cccc(Cl)c12
T/C [12]: 100 % of control | T/C [13]: 104 % of control | T/C [14]: 104 % of control

C#CCN1C(=O)N(CC#C)C(=O)C(CC#C)(C(CC=C)c2ccccc2)C1=O (stereo not given)
T/C [12]: 100 % of control | T/C [13]: 100 % of control | T/C [14]: 96 % of control

CC(C)(CC#N)c1cc(CC(C)(C)C2(C)OCCO2)no1
T/C [1]: 104 % of control | T/C [2]: 98 % of control | T/C [3]: 92 % of control

CN1NC(c2ccc(N(C)C)cc2)(c2ccc(N(C)C)cc2)c2ccc(N(C)C)cc2C1=O
T/C (dose: 100.0 mg/kg/injection, schedule: Q04DX002 (ip), vehicle: saline with Tween-80): 90 % of control | T/C (dose: 200.0 mg/kg/injection, schedule: Q04DX002 (ip), vehicle: saline with Tween-80): 88 % of control | T/C (dose: 400.0 mg/kg/injection, schedule: Q04DX002 (ip), vehicle: saline with Tween-80): 88 % of control

CC(/C=N/Nc1ccccc1)=N\N=c1/scc(-c2ccc(Br)cc2)n1-c1ccc(C)cc1
T/C [6]: 88 % of control | T/C [8]: 86 % of control

O=CNC(Cc1cnc[nH]1)C(=O)O (stereo not given)
T/C [1]: 100 % of control | T/C [2]: 98 % of control | T/C [3]: 97 % of control

O=c1c2cocc2c(O)c2n1Cc1cc3ccccc3nc1-2
T/C (dose: 50.0 mg/kg/injection, schedule: Q01DX001 (ip), vehicle: saline with Tween-80): 100 % of control and 101 % of control | T/C [6]: 99 % of control and 110 % of control and 120 % of control | T/C [7]: 99 % of control and 110 % of control and 120 % of control | T/C [8]: 100 % of control and 102 % of control and 112 % of control

CC(=O)OC[C@]12CCC(C)=CC1O[C@@H]1C(OC(C)=O)[C@@H](O)[C@@]2(C)[C@]12CO2 (stereo not given in full)
T/C (dose: 0.5 mg/kg/injection, schedule: Q01DX009 (ip), vehicle: saline): 116 % of control | T/C (dose: 4.0 mg/kg/injection, schedule: Q01DX009 (ip), vehicle: saline): 165 % of control

Cc1noc(NS(=O)(=O)c2ccc(NC(=O)NCCCl)cc2)c1C
T/C [20]: 102 % of control | T/C [15]: 98 % of control | T/C [16]: 95 % of control | T/C [21]: 97 % of control

CN(C)CCCN1C(=O)C2CCC(C)(C1=O)C2(C)C (stereo not given)
T/C [1]: 100 % of control | T/C [2]: 101 % of control

CCOC(=O)C1=C(C)NC(C)=C(C(=O)OCC)C1c1ccccn1
T/C (dose: 50.0 mg/kg/injection, schedule: Q01DX009 (ip), vehicle: Klucel (hydroxypropylcellulose) (HPC)): 99 % of control | T/C (dose: 100.0 mg/kg/injection, schedule: Q01DX009 (ip), vehicle: Klucel (hydroxypropylcellulose) (HPC)): 97 % of control | T/C (dose: 200.0 mg/kg/injection, schedule: Q01DX009 (ip), vehicle: Klucel (hydroxypropylcellulose) (HPC)): 96 % of control

CCCCCC(Cn1ccnc1)c1ccc(Cl)cc1Cl (stereo not given)
T/C [9]: 99 % of control | T/C [10]: 94 % of control | T/C [11]: 89 % of control

Cc1ccc(-c2cc(=O)c3cc(C)c(C)c(C#N)c3o2)cc1
T/C (dose: 15.0 mg/kg/injection, schedule: Q01DX005 (ip), vehicle: Klucel (hydroxypropylcellulose) (HPC)): 94 % of control | T/C [20]: 87 % of control and 90 % of control | T/C [15]: 90 % of control | T/C [16]: 86 % of control and 88 % of control | T/C [21]: 96 % of control

CNC(=O)OC1=NCCN1
T/C [17]: 94 % of control | T/C [18]: 100 % of control | T/C [19]: 99 % of control
